Results: patent US20080234355A1, “DNA METHYL TRANSFERASE INHIBITORS CONTAINING A ZINC BINDING MOIETY” (priority 2006, published 2008)
pIC50: −log10 of the molar value.

How the values were obtained:
HDAC = HDAC fluorimetric assay kit (AK-500, Biomol), HeLa nuclear extract; type: biochemical; conditions: Fluor de Lys substrate, 1 hour reaction, read-out: HDAC IC50 (grade)
Description: (a) An In Vitro Assay which Determines the Ability of a Test Compound to Inhibit HDAC Enzymatic Activity.
HDAC inhibitors were screened using an HDAC fluorimetric assay kit (AK-500, Biomol, Plymouth Meeting, Pa.). Test compounds were dissolved in dimethylsulphoxide (DMSO) to give a 20 mM working stock concentration. Fluorescence was measured on a WALLAC Victor 2 plate reader and reported as relative fluorescence units (RFU). Data were plotted using GraphPad Prism (v4.0a) and IC50's calculated using a sigmoidal dose response curve fitting algorithm.
Each assay was setup as follows: Defrosted all kit components and kept on ice until use. Diluted HeLa nuclear extract 1:29 in Assay Buffer (50 mM Tris/Cl, pH 8.0, 137 mM NaCl, 2.7 mM KCl, 1 mM MgCl2). Prepared dilutions of Trichostatin A (TSA, positive control) and tested compounds in assay buffer (5× of final concentration). Diluted Fluor de Lys™ Substrate in assay buffer to 100 uM (50 fold=2× final). Diluted Fluor de Lys™ developer concentrate 20-fold (e.g. 50 μl plus 950 μl Assay Buffer) in cold assay buffer. Second, diluted the 0.2 mM Trichostatin A 100-fold in the 1× Developer (e.g. 10 μl in 1 ml; final Trichostatin A concentration in the 1× Developer=2 μM; final concentration after addition to HDAC/Substrate reaction=1 μM). Added Assay buffer, diluted trichostatin A or test inhibitor to appropriate wells of the microtiter plate. Added diluted HeLa extract or other HDAC sample to all wells except for negative controls. Allowed diluted Fluor de Lys™ Substrate and the samples in the microtiter plate to equilibrate to assay temperature (e.g. 25 or 37° C. Initiated HDAC reactions by adding diluted substrate (25 μl) to each well and mixing thoroughly. Allowed HDAC reactions to proceed for 1 hour and then stopped them by addition of Fluor de Lys™ Developer (50 μl). Incubated plate at room temperature (25° C.) for 10-15 min. Read samples in a microtiter-plate reading fluorimeter capable of excitation at a wavelength in the range 350-380 nm and detection of emitted light in the range 440-460 nm.

[1] = system: gelatinase A (MMP2; Type IV collagenase); conditions: 3T3 cells; cited from earlier work
[2] = system: ER mRNA expression in human ER-negative breast cancer cell lines; conditions: cited from earlier work

Structure (SMILES)	pIC50 (HDAC)	also measured
Nc1ccc(C(=O)NCCNCCC(=O)NO)cc1 [Compound 25]	< 5.00	–
CCN(CCNC(=O)c1ccc(N)cc1)C(=O)CCC(=O)NO [Compound 34, N^1-(2-(4-aminobenzamido)ethyl)-N^1-ethyl-N^4-hydroxysuccinamide]	< 5.00	–
CC(/C=C/C(=O)NO)=C\[C@@H](C)C(=O)c1ccc(N(C)C)cc1 [TSA, trichostatin A]	–	mRNA as well as zymographic activity of gelatinase A (MMP2) [1]: decreases; increase in ER mRNA expression [2]: 5 fold

Further lines, with some results ahead:

pIC50 (HDAC)	Structure (SMILES)	also measured
< 5.00	Nc1ccc(C(=O)NCCNCCC(=O)CCC(=O)NO)cc1 [Compound 28]	–
6.00 to 7.00	Nc1ccc(C(=O)NCCNC(=O)CCCC(=O)NO)cc1 [Compound 29, N-hydroxy-4-(2-(4-aminobenzamido)-ethylcarbamoyl)butanamide]	melting point: 158.9 to 159.8 °C
5.00 to 6.00	Nc1ccc(C(=O)NCCNC(=O)CCCCC(=O)NO)cc1 [Compound 30]	–
5.00 to 6.00	CCN(CCNC(=O)c1ccc(N)cc1)C(=O)CCCCC(=O)NO [Compound 36, N^1-(2-(4-aminobenzamido)ethyl)-N^1-ethyl-N^6-hydroxyadipamide]	–
